This is an account of results in patent US20030207813A1, “Retroviral protease inhibitor combinations” (priority 1995, published 2003).

Test [1] concerns HIV-1RF. In words: CEM-T4 cell infection assay, reverse transcriptase readout, isolate RF. Conditions: Human immunodeficiency virus 1, CEM-T4, 168 h, 7 days, read-out: Virus Isolate (EC50 ng/mL) RF. Format: cell-based. An excerpt: (§1) RF represents the HIV-1 strain HIV-LRF and RFR represents a mixture of resistant strains obtained by selection of RF against the compound of Example 1. RFR comprises a mixture of viral strains having protease genotypes of G48V (14/40 clones); G48V, V82A (18/40 clones); G48V, L90S (2/40 clones); G48V, 154T, V82A (1/40 clones); G48M (1/40 clones); G48V, Q61H (1/40 clones); V13I, G48V (1/40 clones); G48V, F53L, V82A (1/40 clones); and G48V, V82A, C95Y (1/40 clones). RFR2 represents a mixture of resistant strains obtained by cloning RFR by three rounds of growth at limiting dilution. RFR2 comprises a mixture of viral strains having protease genotypes of G48V, V82A (13/15 clones); G17E, G48V, V82A (1/15 clones); and G48V, V82A, N37D, N88D (1/15 clones). RFRR represents a mixture of resistant strains obtained by selection of RF against the compounds of Examples 1 and 2 and then cloning by three rounds of growth at limiting dilution. RFRR comprises a mixture of viral strains having protease genotypes of G48V, 154T, L63P, V82A (7/9 clones); G48V, 154T, L63P, V82A, N88S (1/9 clones); and G48V, 154T, L63P, G73M, V82A (1/9 clones). SF162 represents the HIV-1 strain SF-162 and SF162R represents a mixture of resistant strains obtained by selection of SF162 against the compound of Example 1. SF162R comprises a mixture of viral strains having protease genotypes of M461, F53L, L63P, A71V, N88D (2/3 clones); and M46I, F53L, L63P, A71V, N88D, Q92R (1/3 clones). 89-959 represents the HIV-1 strain 89-959 and 89-959R represents a mixture of resistant strains obtained by selection of 89-959 against the compound of Example 2. 89-959R comprises a mixture of viral strains having protease genotypes of N88S (4/5 clones); and D25N, T26A, D30N, D37N, R41K, G73D, R87K, N88S (1/4 clones). NL4 represents the HIV-1 strain HIV-1NL4-3. NL4(G48V) represents a strain having a synthetically generated site-directed mutation in the protease from glycine to valine at amino acid position number 48. NL4(I84V) represents a strain having a synthetically generated site-directed mutation in the protease from isoleucine to valine at amino acid position number 84. NL4(R8Q,M46I) represents a strain having synthetically generated site-directed mutations in the protease from arginine to glutamine at amino acid position number 8 and methionine to isoleucine at amino acid position number 46. NL4(P22-538) represents a mixture of resistant strains obtained by selection of HIV-1NL4-3 against the compound of Example 10 after 22 passages comprising protease genotypes M46I, L63P, A71V, V82F, I84V (4/10); M46I, L63P, V82F, I84V (3/10); and M46I, A71V, V82F, I84V (3/10). NL4(P37-538) represents resistant strains obtained by selection of HIV-1NL4-3 against the compound of Example 10 after 37 passages comprising protease genotype M46I, L63P, A71V, 184A. NL4(538/524) represents resistant strains obtained by selection of NL4(P22-538) against the compound of Example 5 after 24 passages comprising protease genotype M46I, L63P, A71V, 184A. NL4(538/P7-AG) represents a mixture of resistant strains obtained by selection of NL4(P22-538) against the compound of Example 12 after 7 passages comprising protease genotypes M46I, L63P, A71V, 184A; and V321, V82I. NL4(538/P24-AG) represents resistant strains obtained by selection of NL4(P22-538) against the compound of Example 12 after 24 passages comprising protease genotype M46I, L63P, A71V, 184A. NLA(P19-003) represents resistant strains obtained by selection of HIV-1^NL4-3 against the compound of Example 9 after 19 passages comprising protease genotype R8K, M46I. NL4(P34-003) represents resistant strains obtained by selection of HIV-1^NL4-3 against the compound of Example 9 after 34 passages comprising protease genotype R8K, M46I, L63P, A71V, L90M.
(§2) The viral isolate resistance results summarized in Tables 4-6 were generated according to the following assay procedure or minor modifications thereof. Assays are performed in 96-well tissue culture plates. […]

In test [2] the test system is RFR2 (RFR cloned by three rounds of limiting dilution). In words: CEM-T4 cell infection assay, reverse transcriptase readout, resistant isolate RFR2. Format: cell-based, HIV-1. Conditions: Human immunodeficiency virus 1, 168 h, Table 6, CEM-T4 cells, 7 days, read-out: Virus Isolate (EC50 ng/mL) RFR2.
Description: as §1, §2

The subject of test [3] is RFRR (resistant strains selected from RF against Examples 1 and 2). In words: CEM-T4 cell infection assay, reverse transcriptase readout, resistant isolate RFRR. It is filed as cell-based, HIV-1. Conditions: Human immunodeficiency virus 1, 168 h, Table 6, CEM-T4 cells, 7 days, read-out: Virus Isolate (EC50 ng/mL) RFRR.
Description: as §1, §2

Test [4] relates to HIV-1NL4-3. Kind of test: microbe, parasite or virus in culture. It is filed as cell-based. Conditions: Human immunodeficiency virus 1, NL4; for EC90: Table 7, read-out: Virus Isolate (EC90 nM) NL4; for EC50: read-out: Virus Isolate (EC50 nM) NL4. An excerpt: (§3) RF represents the HIV-1 strain HIV-LRF and RFR represents a mixture of resistant strains obtained by selection of RF against the compound of Example 1. […] RFR2 represents a mixture of resistant strains obtained by cloning RFR by three rounds of growth at limiting dilution. […] RFRR represents a mixture of resistant strains obtained by selection of RF against the compounds of Examples 1 and 2 and then cloning by three rounds of growth at limiting dilution. […] SF162 represents the HIV-1 strain SF-162 and SF162R represents a mixture of resistant strains obtained by selection of SF162 against the compound of Example 1. […] 89-959 represents the HIV-1 strain 89-959 and 89-959R represents a mixture of resistant strains obtained by selection of 89-959 against the compound of Example 2. […] NL4 represents the HIV-1 strain HIV-1NL4-3. NL4(G48V) represents a strain having a synthetically generated site-directed mutation in the protease from glycine to valine at amino acid position number 48. NL4(I84V) represents a strain having a synthetically generated site-directed mutation in the protease from isoleucine to valine at amino acid position number 84. NL4(R8Q,M46I) represents a strain having synthetically generated site-directed mutations in the protease from arginine to glutamine at amino acid position number 8 and methionine to isoleucine at amino acid position number 46.

In test [5] the test system is NL4(P37-538). In words: Viral isolate resistance assay per Markowitz et al., NL4(P37-538). Format: cell-based, HIV-1.
Description: as §1
The viral isolate resistance results summarized in Tables 7-11 were generated according to the assay procedures described by Markowitz et al., Journal of Virology, vol. […]

Test [6] concerns NL4(538/524). In words: Viral isolate resistance assay per Markowitz et al., NL4(538/524). Format: cell-based, HIV-1. Conditions: Human immunodeficiency virus 1; Table 10; NL4(P22-538) selected against Example 5, 24 passages.
Description: as §1, with “NLA(P19-003) represents resistant strains obtained by selection of HIV-1^NL4-3 against the compound of Example 9 after 19 passages comprising protease genotype R8K, M46I. NL4(P34-003) represents resistant strains obtained by selection of HIV-1^NL4-3 against the compound of Example 9 after 34 passages comprising protease genotype R8K, M46I, L63P, A71V, L90M.” left out

Test [7] relates to NL4(538/P7-AG). Kind of test: Viral isolate resistance assay per Markowitz et al., NL4(538/P7-AG). Format: cell-based, HIV-1. Conditions: Human immunodeficiency virus 1; Table 10; NL4(P22-538) selected against Example 12, 7 passages.
Description: as §1, with “NLA(P19-003) represents resistant strains obtained by selection of HIV-1^NL4-3 against the compound of Example 9 after 19 passages comprising protease genotype R8K, M46I. NL4(P34-003) represents resistant strains obtained by selection of HIV-1^NL4-3 against the compound of Example 9 after 34 passages comprising protease genotype R8K, M46I, L63P, A71V, L90M.” left out

Test [8] concerns NL4(538/P24-AG). Kind of test: Viral isolate resistance assay per Markowitz et al., NL4(538/P24-AG). Format: cell-based, HIV-1. Conditions: Human immunodeficiency virus 1; Table 10; NL4(P22-538) selected against Example 12, 24 passages.
Description: as §1, with “NLA(P19-003) represents resistant strains obtained by selection of HIV-1^NL4-3 against the compound of Example 9 after 19 passages comprising protease genotype R8K, M46I. NL4(P34-003) represents resistant strains obtained by selection of HIV-1^NL4-3 against the compound of Example 9 after 34 passages comprising protease genotype R8K, M46I, L63P, A71V, L90M.” left out

Test [9] concerns RFR (resistant strains selected from RF against Example 1). In words: CEM-T4 cell infection assay, reverse transcriptase readout, resistant isolate RFR. It is filed as cell-based, HIV-1. The following applies: Human immunodeficiency virus 1, CEM-T4, 168 h, Table 4, CEM-T4 cells, 7 days, read-out: Virus Isolate (EC50 ng/mL) RFR.
Description: as §1, §2

Test [10] has as its system NL4(P22-538). In words: Viral isolate resistance assay per Markowitz et al., NL4(P22-538). Format: cell-based, HIV-1. Conditions: Human immunodeficiency virus 1, read-out: Virus Isolate (EC50 nM) NL4(P22-538).
Description: as §1, with “NLA(P19-003) represents resistant strains obtained by selection of HIV-1^NL4-3 against the compound of Example 9 after 19 passages comprising protease genotype R8K, M46I. NL4(P34-003) represents resistant strains obtained by selection of HIV-1^NL4-3 against the compound of Example 9 after 34 passages comprising protease genotype R8K, M46I, L63P, A71V, L90M.” left out

Test [11] deals with NL4(I84V). Kind of test: Viral isolate resistance assay per Markowitz et al., NL4(I84V). Format: cell-based, HIV-1. The following applies: Human immunodeficiency virus 1, Table 7.
Description: as §3

The mark [12] stands for this setting: Human immunodeficiency virus 1, read-out: Virus Isolate (EC50 nM) NL4(P37-538).

Values after ≈ are worked out from the molar mass of the structure shown. Read-outs that look alike come from different tables or passages of the source.

For orientation: EC90 means the concentration at which the effect reaches the 90% level. For the compound `CNCC(=O)N[C@H](C(=O)N[C@@H](Cc1ccccc1)[C@H](O)CN(CC(C)C)S(=O)(=O)c1ccc2c(c1)OCO2)C(C)(C)C` [Example 16, 2S-[[(N-methylamino)acetyl]amino]-N-[2R-hydroxy-3-[[(1,3-benzodioxol-5-yl)sulfonyl](2-methylpropyl)amino]-1S-(phenylmethyl)propyl]-3.3-dimethylbutanamide], the EC50 in test [1] (Table 6, CEM-T4 cells) was determined as 3 ng/mL (≈ 4.96 nM); in test [2], 1 ng/mL (≈ 1.65 nM); in [3] it was 9 ng/mL (≈ 14.9 nM); in test [4] (Table 8), 8 nM; in test [5] (Human immunodeficiency virus 1, Table 9, selected against Example 10, 37 passages, read-out: Virus Isolate (EC50 nM) NL4(P37-538)) it was 40 nM; in test [6] it was 40 nM. Moreover, the EC50 in [7] and in test [8] was 40 nM throughout. Moreover, the EC90 in [4] turned out to be 8 nM.

Turning to `COc1ccc(S(=O)(=O)N(CC(C)C)C[C@@H](O)[C@H](Cc2ccccc2)NC(=O)[C@H](C)CS(C)(=O)=O)cc1` (relative stereo) [Example 4, [1S-[1R*(R*),2S*]]-N-[2-hydroxy-3-[N^1-(2-methylpropyl)-N-(4-methoxyphenylsulfonyl)amino]-1-(phenylmethyl)propyl]-2-methyl-3-(methylsulfonyl)propanamide], the EC50 in test [1] (Table 4, CEM-T4 cells) was determined as 10 ng/mL (≈ 18 nM); in test [9], 0.4 ng/mL (≈ 0.721 nM).

Turning to `CC(C)CN(C[C@@H](O)[C@H](Cc1ccccc1)NC(=O)[C@H](C)CS(C)(=O)=O)S(=O)(=O)c1ccc2c(c1)OCO2` [Example 15, N-[2R-hydroxy-3-[(2-methylpropyl)[(1,3-benzodioxol-5-yl)sulfonyl]amino]-1S-(phenylmethyl)propyl]2S-methyl-3-(methylsulfonyl)propanamide], the EC50 in [1] (Table 6, CEM-T4 cells) came out at 5 ng/mL (≈ 8.79 nM); in [2], 9 ng/mL (≈ 15.8 nM); in [3] it was 21 ng/mL (≈ 36.9 nM); in test [4] (Table 9), 8 nM; in [10], 400 nM; in test [5] (setting [12]) it was 1000 nM. Further, in test [4], the EC90 turned out to be 60 nM.

For `COc1ccc(S(=O)(=O)N(CC(C)C)C[C@@H](O)[C@H](Cc2ccccc2)NC(=O)OCc2cncnc2)cc1` [Example 3, [2R-hydroxy-3-[[(4-methoxyphenyl)sulfonyl](2-methylpropyl)amino]-1S-(phenylmethyl)propyl]carbamic acid 5-pyrimidylmethyl ester], the EC50 in [1] (Table 4, CEM-T4 cells) turned out to be 5 ng/mL (≈ 9.21 nM); in test [9] it was 2 ng/mL (≈ 3.69 nM).

In the case of `CC(C)CN(C[C@@H](O)[C@H](Cc1ccccc1)NC(=O)[C@@H](NC(=O)CN1CCCC1)C(C)(C)C)S(=O)(=O)c1ccc2c(c1)OCO2` [Example 14, N-[2R-hydroxy-3-[[(1,3-benzodioxol-5-yl)sulfonyl](2-methylpropyl)amino]-1S-(phenylmethyl)propyl]-2S-[[(pyrrolidin-1-yl)acetyl]amino]-3,3-dimethylbutanamide], the EC50 in test [1] (Table 6, CEM-T4 cells) is 1 ng/mL (≈ 1.55 nM); in [2] it was 6 ng/mL (≈ 9.3 nM); in test [3], 39 ng/mL (≈ 60.5 nM); in test [4] (Table 9) it was 60 nM; in test [5] (setting [12]) it was 1000 nM. The EC90 in test [4] was determined as 8 nM; in test [11], 72 nM.
